Read-outs that look alike come from different tables or passages of the source.
Experiments:
[1] = test system: cells; test: Amount of AP1903 needed in vitro for effective signaling of cells; format: cell-based; settings: converted with 1600 Da MW
Experimental: The fixed dose of AP1903 for injection used, for example, may be 0.4 mg/kg intravenously infused over 2 hours. The amount of AP1903 needed in vitro for effective signaling of cells is 10-100 nM (1600 Da MW). This equates to 16-160 μg/L or {tilde over ( )}0.016-1.6 μg/kg (1.6-160 μg/kg). Doses up to 1 mg/kg were well-tolerated in the Phase I study of AP1903 described above. Therefore, 0.4 mg/kg may be a safe and effective dose of AP1903 for this Phase I study in combination with the therapeutic cells.

[2] = test system: cells; settings: cited from earlier work
[3] = cited from earlier work

For `CC[C@H](C(=O)N1CCCC[C@H]1C(=O)O[C@H](CCc1ccc(OC)c(OC)c1)c1cccc(OCC(=O)NCCNC(=O)COc2cccc([C@@H](CCc3ccc(OC)c(OC)c3)OC(=O)[C@@H]3CCCCN3C(=O)[C@@H](CC)c3cc(OC)c(OC)c(OC)c3)c2)c1)c1cc(OC)c(OC)c(OC)c1` (relative stereo) [AP1903, 2-Piperidinecarboxylic acid, 1-[(2S)-1-oxo-2-(3,4,5-trimethoxyphenyl)butyl]-, 1,2-ethanediylbis[imino(2-oxo-2,1-ethanediyl)oxy-3,1-phenylene[(l R)-3-(3,4-dimethoxyphenyl)propylidene]]ester, [2S-[1(R*),2R*[S*[S*[1(R*),2R*]]]]]-(9Cl)], the “amount needed in vitro for effective signaling of cells, converted” value [1] is given as 16 to 160 µg/L, the “amount needed in vitro for effective signaling of cells” value [2] is given as 10 to 100 nM and the pharmacokinetic profile ([3]; 0.01-1.0 mg/kg IV over 2 hours) is given as “favorable pharmacokinetic profile”. For the same compound, the “plasma levels in relation to dose” value ([3]; 0.01-1.0 mg/kg IV over 2 hours) was “directly proportional to dose”, the “plasma level as % of maximal concentration” value (“plasma level as %” below) ([3]; 0.5 hours post-dose) was “approximately 18%” and the “plasma level as %” value ([3]; 2 hours post-dose) was roughly 7%. For the same compound, the “plasma level as %” value ([3]; 10 hours post-dose) was roughly 1%, the doses well-tolerated ([3]; Phase I study) was “up to 1 mg/kg” and the safety and tolerability ([3]; at all dose levels (0.01-1.0 mg/kg)) was “safe and well tolerated”. For the same compound, the “mean Cmax” value ([3]; over the 0.01-1.0 mg/kg dose range, single doses infused IV over 2 hours, 24 healthy volunteers) was 10 to 1275 ng/mL.
